Test results as given in patent publication US6358700B2, “Method for detecting microorganisms by fluorescent staining using hydrostatic pressure” (Japan Marine Science and Technology Center, priority 1998, dated 2002).

Key:
IFO10159 strain = assay: Accumulation of CF and CDCF under elevated hydrostatic pressure (CytoFluor 2350); format: cell-based, Saccharomyces cerevisiae; conditions: ordinary pressure; for total fluorescence intensity of labeled cells: 10 μM dye, one hour
Method: (§1) Cells of Saccharomyces cerevisiae were grown in YPD (1% yeast extract, 2% bactopeptone, 2% D-glucose) broth at 24° C. Cells from a log-phase culture (2×10^7 to 4×10^7 cells/ml) were collected by centiifugation and re-suspended in fresh YPD containing 50 mM citric acid (pH 3.0 or pH 5.0), then placed in plastic tubes (Cryotubes, available from Nunc) at 2×10^7 to 3×10^7 cells/ml. After sealing with Parafilm, the tubes were put into titanium pressure vessels, followed by application of a desired hydrostatic pressure. The each required hydrostatic pressure was established within 2 min using a hand pump (available from Rigo-sha, Japan). To remove samples, the pressure was released in approximately 15 sec.
(§2) Cells originated fiom a log-phase culture (2×10^7 to 4×10^7 cells/ml) were incubated with 10 μM CFDA (Sigma, Cat. No. C-5041) in YPD containing 50 mM citric acid (pH 3.0), or 10 μM CDCFDA Molecular Probe, Cat. No. C-369) in YPD containing 50 mM citric acid (pH 5.0), respectively, under varying hydrostatic pressures ranging from ordinary pressure to 60 MPa. To analyze the dependence, on glucose, of pressure-induced dye-accumulation, vegetative cells were collected, washed twice in distilled water and starved for 30 min on ice. Then cells were suspended in MBA buffer (100 mM MES-Bis-Tris, 100 mM ammonium sulfate, pH 5.0), followed by addition of CDCFDA and application of a desired hydrostatic pressure of up to 6OMPa for one hour in the presence of D-glucose in various concentrations.
(§3) To analyze the effect of 2-deoxyglucose, cells were incubated with CDCFDA in MBA buffer containing 100 mM D-glucose. Unless otherwise specified, the final concentration of the fluorescent dye was 10 μM. After applying a desired hydrostatic pressure for one hour, the cells were washed twice with 10 mM MES-Bis-Tris (pH 5.0) and suspended in MB buffer. Fluorescence of the labeled cells emitted at 535 nm with excitation at 485 nm was detected using CytoFluor 2350 Plate Reader (available from Mlipore), or an RF5300PC spectrofluorometer (available from Shimazu, Japan). Fluorescence intensity (a. u.; arbitrary units) was recorded as the fluorescence of labeled cells minus the fluorescence of non-labeled cells for 10^7 cells.
(§4) Cells of the IFO2347 strain were incubated with 10 μM of CFDA or CDCFDA and cultured for one hour under each hydrostatic pressure condition. The stained cells were analyzed using Cytofluor 2350. The results thus obtained are plotted on FIG. 1A Similarly, cells of IFO10159 strain were inoculated with 10 μM of CFDA or CDCFDA and cultured for one hour under each hydrostatic pressure condition. The stained cells were analyzed using Cytofluor 2350. The results thus obtained are plotted on FIG. 1B. In FIGS. 1A and 1B, ◯ and ● represent cells stained with CF and those stained with CDCF, respectively.

IFO2347 strain [1] = assay: as above; format: cell-based, Saccharomyces cerevisiae; conditions: 10 μM CFDA or CDCFDA, one hour, FIG. 1A
Method: as §1, §2, §3, §4

IFO2347 strain [2] = assay: Flow cytometry of CDCFDA-labeled cells; format: cell-based, Saccharomyces cerevisiae; conditions: for mean fluorescence of labeled cells / peak fluorescence of labeled cells: 10 μM CDCFDA, 24° C., one hour
Method: Cells were incubated with 10 μM CFDA or 10 μM CDCFDA and cultivated under several hydrostatic pressures for one hour. After decompression, the labeled (or stained) cells were washed twice with distilled water and re-suspended in MB buffer. The cells were analyzed using the Bryte-HS Flow Cytometry System (available from Bio-Rad) under ordinary pressure.
The IFO2347 strain was cultured at 24° C. for one hour in the presence of 10 μM CDCFDA, under a hydrostatic pressure of 0.1, 30 or 60 MPa. The CDCFDA-labeled cells (about 100,000) were analyzed using the Bryte-HS Flow Cytometry System. FIG.2A depicts the histograms showing the intensity distribution of populations of IFO2347 cells labeled with CDCFDA observed after the cultivation.

IFO2347 strain [3] = assay: Dependency on glucose metabolism of pressure-induced CDCF accumulation; format: cell-based; conditions: Saccharomyces cerevisiae, MBA buffer with 100 mM D-glucose, 10 μM CDCFDA, FIG. 4B, read-out: concentration at which half-maximal inhibition of pressure-induced CDCF accumulation occurred
Method: as §2, with “Then cells were suspended in MBA buffer (100 mM MES-Bis-Tris, 100 mM ammonium sulfate, pH 5.0), followed by addition of CDCFDA and application of a desired hydrostatic pressure of up to 6OMPa for one hour in the presence of D-glucose in various concentrations.” left out
as §3, with “Unless otherwise specified, the final concentration of the fluorescent dye was 10 μM. After applying a desired hydrostatic pressure for one hour, the cells were washed twice with 10 mM MES-Bis-Tris (pH 5.0) and suspended in MB buffer.” left out
The cells of the strain were cultured at 24° C. for one hour in MBA buffer containing a desired amount of D-glucose at a predetermined hydrostatic pressure (0.1 MPa (◯), 30 MPa (●)) in the presence of 10 μM CDCFDA. The labeled cells were analyzed using CytoFluor 2350. […]

IFO2347 strain [4] = assay: Effects of hydrostatic pressure on hydrolysis of CDCFDA; format: cell-based, Saccharomyces cerevisiae; conditions: for fluorescence intensity reached (hydrolysis under pressure): 50 μM CDCFDA, FIG. 3A
Text: Fluorescence emission was examined under several hydrostatic pressures in a hydrostatic chamber provided with transparent windows which were made by sapphire (size: 10×8 mm). Each sample in a transparent cuvette was placed in the chamber which was set up in an RF5300PC spectrofluorometer. Fluorescence was emitted at 535 nm with excitation at 485 nm. The fluorescence intensity of the labeled cells was strong enough to be detected through the sapphire windows, even though the emission was reduced compared to the analysis without such a hydrostatic chamber equipped with a sapphire window. Each hydrostatic pressure was applied using a hand pump (available from Teramecs, Co. Ltd., Japan).
A cuvette containing the IFO2347 strain was fitted to a container, followed by addition of 50 μM CDCFDA, application of a hydrostatic pressure at a point P (see FIG. 3A), and examination of the fluorescence intensity change with time in a hydrostatic chamber equipped with RF5300 Fluorescent Spectrometer. The results obtained are plotted on FIG. 3A The fluorescence intensity increased to 300 a.u. and 130 a.u. when hydrostatic pressures of 0.1 MPa (ordinary pressure) and 60 MPa were applied, respectively (FIG. 3A). On the other hand, the fluorescence intensity increased to 770 a.u. when a pressure of 30 MPa was applied.
Cells of the IFD2347 strain were pre-incubated at several hydrostatic pressures for one hour in YPD culture medium (pH 5.0), and subsequently the pre-incubated cells were placed into a cuvette, followed by addition of 50 μM of CDCFDA to the pressure-adapted cells at ordinary pressure and examination of any change in the fluorescence intensity (the hydrolysis activity) by the same method as used above. The results thus obtained are plotted on FIG. 3B. […] Almost identical results were obtained when using CFDA (data not shown).

For Carboxyfluorescein [CF], the “fluorescence intensity relative to non-labeled cells” value (IFO10159 strain) was 1.6 fold, the “total fluorescence intensity of labeled cells” value (IFO10159 strain) was 15.5 a. u. per 10^7 cells and the “hydrostatic pressure at which accumulation peaks” value (IFO2347 strain [1]) was 40 MPa.
In the case of Carboxydichlorofluorescein [CDCF], the “fluorescence intensity relative to non-labeled cells” value (IFO10159 strain) is reported as “about 2.5 fold”, the “total fluorescence intensity of labeled cells” value (IFO10159 strain) is reported as 24.8 a. u. per 10^7 cells and the “hydrostatic pressure at which accumulation peaks” value (IFO2347 strain [1]) is reported as 30 MPa. For the same molecule, the “mean fluorescence of labeled cells” value (IFO2347 strain [2]; 0.1 MPa (ordinary pressure)) was 26 a.u, the “peak fluorescence of labeled cells” value (IFO2347 strain [2]; 0.1 MPa (ordinary pressure)) was 23 a.u and the “increase of accumulation of CDCF” value (IFO2347 strain [2]; 30 MPa for one hour versus ordinary pressure) was “four to six folds”. The “mean fluorescence of labeled cells” value (IFO2347 strain [2]; 30 MPa) was 162 a.u, the “peak fluorescence of labeled cells” value (IFO2347 strain [2]; 30 MPa) was 92 a.u and the enhancement of staining (IFO2347 strain [2]; 60 MPa) was “not enhanced”.
`O=CC[C@@H](O)[C@H](O)[C@H](O)CO` [2-deoxyglucose] showed an IC50 (IFO2347 strain [3]) of ~12 mM.
For “Carboxydichlorofluorescein diacetate [CDCFDA]”, the “fluorescence intensity reached (hydrolysis under pressure)” value (“fluorescence intensity reached” for short) (IFO2347 strain [4]; 0.1 MPa (ordinary pressure)) was 300 a.u, the “fluorescence intensity reached” value (IFO2347 strain [4]; 30 MPa) was 770 a.u and the “fluorescence intensity reached” value (IFO2347 strain [4]; 60 MPa) was 130 a.u. The “rate of hydrolysis by cells adapted to 30 MPa relative to cells adapted to 0.1 MPa or 60 MPa” value (IFO2347 strain [4]; pre-incubation one hour, 50 μM CDCFDA added at ordinary pressure, FIG. 3B) was “approximately three times greater”.
